Data on 55 compounds can be found in PubChem BioAssay AID179 (DTP/NCI, 2004).

For this experiment, the system named is CEM cells HIV-1 protection, formazan growth assay. Briefly: NCI AIDS Antiviral Assay. Particulars: for IC50: measured here: growth of uninfected CEM cells. In outline:
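Steps: treat uninfected and HIV-1-infected human CEM cells at five drug levels; quantify growth by soluble formazan; retest any compound reaching 50% protection; classify actives from the retest.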

Activity calls are given as the source filed them.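 The calls were made as follows: active = compounds giving half or more protection of infected cells from virus-caused growth loss, again on retest; inactive = the rest.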 Where a SMILES comes first, the peptide text is derived from it. The star is where a group is joined. Boc = CC(C)(C)OC(=O)*

Turning to `CC(=O)NC1C(O)OC(CO)C(O)C1OC(C)C(=O)N[C@@H](CC(N)=O)C(=O)N[C@H](CCC(=O)O)C(N)=O` (stereo not given in full), the EC50 (as a rule, the concentration that produces a half-maximal response) was above 468 µM and the IC50 – broadly, the concentration that gives 50% inhibition – turned out to be 219 µM.
On to `O=C(NC(CCCCN1C(=O)c2ccccc2C1=O)P(=O)(Oc1ccccc1)Oc1ccccc1)OCc1ccccc1` (stereo not given), for which the EC50 is above 200 µM and the IC50 turned out to be 95.5 µM.
The matching figures for `CC1=NN(C2=NS(=O)(=O)c3ccccc3N2C)C(=O)C1`: above 123 µM and above 123 µM.
On to `CN1C(=O)c2ccccc2C2(O)c3ccccc3-c3ccccc3C12O` (stereo not given), for which the EC50 was above 20 µM and the IC50 amounted to 4.47 µM.
`c1cc2cc(Cc3ccc4[nH]ccc4c3)ccc2[nH]1`: the EC50 was above 200 µM and the IC50 is 30.9 µM.
Regarding `CCCCCCCCCCCCCCCCCCOC(COP(=O)(O)OCC1CCC(n2cnc3c(=O)[nH]cnc32)O1)COP(=O)(O)OCC1OC(n2cc(C)c(=O)[nH]c2=O)CC1N=[N+]=[N-]` (stereo not given), the EC50 is 1.17 µM and the IC50 was determined as 162 µM.
The corresponding values for `COc1ccc(C2(Br)C(=O)NN=C2C)cc1` (stereo not given) are above 200 µM and 10.7 µM.
Take `C=CC1(O)CC(n2cc(C)c(=O)[nH]c2=O)OC1CO` (stereo not given): the EC50 is above 200 µM and the IC50 is above 200 µM.
With `CC1=C(C)C2(C#N)CC(=O)N=C2O1` (stereo not given), the EC50 was above 200 µM and the IC50 was above 200 µM.
As for `CC1=C(/C=C/C2=CC(=C\C(=O)O)/CC(C3=C(C)CCCC3(C)C)C2)C(C)(C)CCC1` (stereo not given), the result was inactive.
In the case of `Cc1ccc(-c2n[nH]c(=O)n2NC(=O)c2ccccc2C(=O)O)cc1`, the result was inactive.
For `CC(=O)C1=C(O)CC2CC3c4[nH]c5ccccc5c4CCN3CC2C1` (stereo not given), the EC50 is above 204 µM and the IC50 was found to be 102 µM.
The corresponding values for `CCCNC1=C(Cl)C(=O)c2ccccc2C1=O` are above 145 µM and 26.3 µM.
The corresponding values for `Cc1c(O)c2ccccc2c2c1sc(NCCO)[n+]2C` are above 79.4 µM and 40.7 µM.
For `CCOC(=O)C(=O)CC(=O)C1=C(c2ccccc2OC)CC(c2cccs2)=CC1=O`, the EC50 is above 200 µM and the IC50 stood at 32.4 µM.
`NNC(=S)N/N=C(/C(=O)Nc1cc(Cl)ccc1Cl)C1C(=O)Nc2ccccc2S1=O` (stereo not given): the EC50 was above 513 µM and the IC50 came out at 257 µM.
The corresponding values for `O=C1CCCn2c(nc3ccccc32)N1` are above 200 µM and above 200 µM.
As for `NC(=S)N/N=C1/C(=O)N(c2ccc(Cl)cc2Cl)C(=O)C(=O)C1c1nc2ccccc2s1` (stereo not given), the EC50 was above 72.4 µM and the IC50 was above 72.4 µM.
With `CC(=O)Nc1cc2cc(N)ccc2oc1=O`, the EC50 was above 107 µM and the IC50 was above 107 µM.
As for `Cc1c(C2(c3cc(Br)c(O)c(Br)c3C)OS(=O)(=O)c3ccccc32)cc(Br)c(O)c1Br`, the outcome was inactive.
As for `CCN(CC)CCNC(=O)c1nn(-c2ccc(C)cc2)c2c1N(C)S(=O)(=O)c1ccccc1-2`, the EC50 is above 77.6 µM and the IC50 worked out at 56.2 µM.
In the case of `CCCCCCCCCCCCCC(=O)CBr`, the result was inactive.
Take `CNc1nc2n(CCO)c(-c3ccccc3)c(-c3ccccc3)nc-2c(=O)n1`: the EC50 was above 50.1 µM and the IC50 came to 26.3 µM.
`c1ccc(N2N=NC3C4CC(C5COCC54)C32)cc1` (stereo not given): the EC50 was above 200 µM and the IC50 is above 200 µM.
Take `CC(=O)/C(=C/N1CCNC1=S)C(=O)Nc1ccccc1C`: the EC50 is above 200 µM and the IC50 was above 200 µM.
In the case of `O=C(NC(C(F)(F)F)(C(F)(F)F)P(=O)(c1ccccc1)c1ccccc1)C(C(F)(F)F)C(F)(F)F`, the EC50 is above 200 µM and the 50% inhibitory concentration (IC50) is 11.7 µM.
For `Cc1ccc(-n2c(=S)n(-c3ccccc3C)c3nc4ccccc4nc2/c3=N\Nc2ccccc2)cc1`, the EC50 was above 200 µM and the IC50 turned out to be 123 µM.
Regarding `Cc1c(C(=O)CC(=O)C(=O)NC2C3CC4CC(C3)CC2C4)[n+](=O)c2ccccc2n1[O-]` (stereo not given), the EC50 is above 12.3 µM and the concentration for half-maximal inhibition (IC50) was above 12.3 µM.
Consider `Cc1cc2cc3n(c2nn1)N=C(Cl)CC3`, for which the EC50 is above 339 µM and the IC50 amounted to 6.31 µM.
The corresponding values for `O=S(=O)(c1ccccc1)N1CC2C3C=CC(C3)C2C1` (stereo not given) are above 200 µM and 145 µM.
The matching figures for `COc1cc(/C=C/C(=N\NC(=S)NN)c2sc(NNC(C)=O)nc2C)ccc1O`: above 12 µM and above 12 µM.
As to `Cc1ncc([N+](=O)[O-])n1CCNC(=O)CCCCn1ccnc1[N+](=O)[O-]`, the EC50 was above 200 µM and the IC50 is above 200 µM.
`COC(=O)C(Cc1c[nH]c2ccccc12)NC(=O)C(Cc1c[nH]c2ccccc12)NC(=O)C(Cc1c[nH]c2ccccc12)NC(=O)OC(C)(C)C` (stereo not drawn) (Boc-Trp-Trp-Trp-OMe; configuration not given here): the EC50 is above 200 µM and the IC50 is 29.5 µM.
The corresponding values for `CC(C)(C)c1cc(C(C)(C)C)c(N=O)c(C(C)(C)C)c1` are above 200 µM and above 200 µM.
In the case of `Cn1c(=O)c2c(nc3n2CCCC(=O)N3CC(O)CCl)n(C)c1=O` (stereo not given), the EC50 was above 200 µM and the IC50 was determined as 85.1 µM.
The matching figures for `CCOC(=O)C(=C/C=C/NCCc1c[nH]c2ccccc12)C(=O)OCC`: above 10.7 µM and above 10.7 µM.
The corresponding values for `COc1cc(C2c3cccc4cccc(c34)C3CCC(=O)N32)cc(OC)c1O` (stereo not given) are above 50.1 µM and 1.32 µM.
For `COC(=O)NN=C1C(C)(C)C(=O)C1(C)C`, the EC50 is above 85.1 µM and the IC50 is above 85.1 µM.
Take `O=C1c2ccccc2CC12Cc1cc3c(cc1C2=O)CCC3` (stereo not given): the EC50 is above 200 µM and the IC50 is above 200 µM.
Take `O=C1N=C2SCCCN2C1(c1ccccc1)c1ccccc1`: the EC50 was above 200 µM and the IC50 was above 200 µM.
With `COc1cc2c(cc1OCc1ccccc1)CNCC2`, the EC50 is above 794 µM and the IC50 was 145 µM.
The corresponding values for `CCOC(=O)/C(=C\c1ccco1)C(C)=O` are above 240 µM and above 240 µM.
For the compound `NC(=O)c1cc(NC(=O)c2ccc(C(=O)Nc3cc(C(N)=O)cc(C4=NCCN4)c3)cc2)cc(C2=NCCN2)c1`, the EC50 was above 100 µM and the IC50 is above 100 µM.
For the compound `C=C(C)CCC(=O)[C@](C)(O)[C@H]1[C@H](O)C[C@@]2(C)[C@@H]3CCc4c(cc(OC5OC(CO)C(O)C(O)C5O)c(O)c4C)C3(C)C(=O)C[C@]12C` (stereo not given in full), the EC50 was above 200 µM and the IC50 is above 200 µM.
With `CC1CN=C(N(C(=O)Nc2ccccc2)c2ccc(Cl)c(Cl)c2)S1` (stereo not given), the EC50 is above 200 µM and the IC50 turned out to be 138 µM.
In the case of `Cc1cccc2oc3c(c(=O)c12)CC(O)C(C)(C)O3` (stereo not given), the EC50 was above 200 µM and the IC50 was determined as 79.4 µM.
The matching figures for `O=C(c1ccc(Cl)cc1Cl)N(C(=O)N1CCCCC1)c1ccccc1`: above 200 µM and above 200 µM.
For `Cc1c2c(cc3c(=O)ccn(CCN(C)C)c13)c(=O)ccn2CCN(C)C`, the EC50 was above 135 µM and the IC50 amounted to 1 µM.
As to `COC1(OC)C2(Cl)CC(OC(C)=O)C1(Cl)C(Cl)=C2Cl` (stereo not given), the EC50 is above 200 µM and the IC50 was above 100 µM.
The corresponding values for `COC(C)(C)C1=CCC(C)CC1` (stereo not given) are above 100 µM and above 100 µM.
For `CC1OC(OCC2OC(Oc3c(-c4ccc(O)c(O)c4)oc4cc(O)cc(O)c4c3=O)C(O)C(O)C2O)C(O)C(O)C1O` (stereo not given), the EC50 was above 200 µM, the result was inactive and the IC50 came out at 1.02 µM.
For `CN1Cc2ccccc2C2(COc3ccccc3C2=O)C1` (stereo not given), the result was inactive.
`O=C1C=CC(=O)c2c(O)c(CO)c(CO)c(O)c21`: the outcome was inactive.
Consider `CCCCCCCCNC(=O)/C(=C\c1ccc(/C=C(/NC(=O)c2ccccc2)C(=O)NCCCCCCCC)cc1)NC(=O)c1ccccc1`, for which the EC50 was above 100 µM and the IC50 was 23.4 µM.
The matching figures for `CC(=O)OCC1CC(n2cc(C)c(=O)[nH]c2=O)=NO1` (stereo not given): above 200 µM and above 200 µM.
